The source of these data is patent US5391765A, “Cholesterol lowering/antioxidant nitroxides” (Bristol-Myers Squibb Company, priority 1993, dated 1995).

One data set relates to HepG2 cells. Nature of the data set: Cholesterol biosynthesis, 14C-acetate incorporation in HepG2 cells. To be noted: Homo sapiens, 4 h incubation, 14C-acetate incorporation over final hour, read-out: Chol. Biosynthesis. Format: cell-based. The method, then:
(§1) The human hepatoma HepG2 cell culture model was employed to compare the intrinsic activities of the synthetic analogues relative to the tocotrienols. HepG2 cells were incubated with the indicated compounds for 4 hours at 10 μM. Cholesterol synthesis was assayed by ^14 C-acetate incorporation over the final hour of incubation, and HMG-CoA reductase suppression (specific activity) was assayed in the microsomal fraction isolated from parallel cultures at the end of the 4 hour incubation. […] (Table I)

In data set [1] the test system is HMG-CoA reductase. In words: HMG-CoA reductase suppression (specific activity) in microsomal fraction of treated HepG2 cells. The class given is cell-based, human. The note with it: 10 μM, 4 h incubation. The method, then:
as §1

Data set [2] concerns normocholesterolemic chickens. Nature of the data set: Serum lipids (total, LDL and HDL cholesterol) in normocholesterolemic male chickens. Format: in vivo, chicken. The note with it: orally dosed for 4 weeks at 4 mg/kg/day. The method, then:
(§2) Hypocholesterolemic activity was evaluated for the synthetic analogues using γ-tocotrienol as a control in normocholesterolemic chickens. Newborn male chicks (6-10 for each group) were raised on a standard corn-soybean-based control diet for two weeks and then were switched to either control or experimental diets for four weeks. Drug treatment consisted of the addition of test compound to the corn-soybean-based. At the end of the feeding period, all the birds were fasted (about 36 hours) and refed (about 48 hours) to induce cholesterolgenic enzymes prior to sacrifice. The specific activity of HMG-CoA reductase, total serum cholesterol levels, HDL/LDL cholesterol pools, and triglyceride levels (data not shown) were examined (Table II).
(§3) Effects of Compound 3 on Lipid Parameters in Male Chickens
(§4) Orally dosed for 4-weeks at 4 mg/kg/day

Data set [3] can be described thus: Oxidation potential by cyclic voltammetry.
The subject of data set [4] is HMG-CoA reductase. In words: HMG-CoA reductase specific activity in normocholesterolemic male chickens. To be noted: orally dosed for 4 weeks at 4 mg/kg/day. Format: in vivo, chicken. The protocol:
as §2, §3, §4

Data set [5] relates to LDL. Nature of the data set: In vitro copper-mediated LDL oxidation, conjugated diene lag time extension. To be noted: 10 μM incubated with rabbit plasma, isolated LDL, added Cu++; lag time ratio treated/control.
Data set [6] deals with LDL. The note with it: oral vitamin E supplementation; cited from earlier work.
The subject of data set [7] is LDL. The note with it: in vitro and in vivo; cited from earlier work.
For data set [8] the following is noted: background statement; cited from earlier work.

As to `CC(C)=CCC/C(C)=C/CC/C(C)=C/CCC1(C)CCc2cc(O)c(C)c(C)c2O1` (centres unmarked) [γ-Tocotrienol], the activity at 10 µM in the data set on HepG2 cells stood at 75%. The “HMGR Suppression” value with HMG-CoA reductase [1] was 65% of Control. Moreover, in data set [2], the HDL-C is 87.0 % of Control and the LDL-C is 54.8 % of Control. In addition, the “Oxd. Potential” value in data set [3] is 0.94 Volts.
Regarding `CC(C)=CCC/C(C)=C/CC/C(C)=C/CCCOc1ccc2c(c1)C(C)=CC(C)(C)N2[O]` [Compound 5, 1,2 -Dihydro-2,2,4-Trimethyl-6-[(5,9,13 -Trimethyl-4(E),8(E),12-tetradecatrienyl)oxy]Quinoline N-Oxide Radical], the activity at 10 µM with HepG2 cells turned out to be 72%.
Consider `CC(C)=CCC/C(C)=C/CC/C(C)=C/CCSCC1=CC(C)(C)N([O])C1(C)C` [Compound 3, 2,5-Dihydro-2,2,5,5-Tetramethyl-3-[[(4,8,12-Trimethyl-3(E),7(E),11-Tridecatrienyl)thio]methyl]-1H-Pyrrole N-Oxide Radical], for which, in the data set on HepG2 cells, the activity at 10 µM turned out to be 5%. The “HMGR Suppression” value in the data set with HMG-CoA reductase [1] is on record as 45% of Control. Also, in data set [2], the HDL-C is on record as 85.8 % of Control and the LDL-C is on record as 52.8 % of Control. Moreover, the Tot.-C in [2] (total serum cholesterol) is reported as 72.0 % of Control. Also, the HMGR with HMG-CoA reductase [4] was 56.0 % of Control. For the same compound, the “Oxd. Potential” value in data set [3] is reported as 0.65 Volts. Moreover, the “LDL Oxd. Inhib. mean lag ratio” value with LDL [5] amounted to 0.97.
For the compound vitamin E, in the data set on LDL [6], the “antioxidant effectiveness, variation between subjects” value is “varied considerably from subject to subject” and the “oxidative resistance of LDL” value was “significantly enhanced”.
With `Cc1c(C)c2c(c(C)c1O)CCC(C)(CCCC(C)CCCC(C)CCCC(C)C)O2` (stereo not drawn) [α-Tocopherol], the “Oxd. Potential” value in data set [3] stood at 0.81 Volts.
Take `CC(C)(Sc1cc(C(C)(C)C)c(O)c(C(C)(C)C)c1)Sc1cc(C(C)(C)C)c(O)c(C(C)(C)C)c1` [PROBUCOL, 4,4'-[(1-methylethylidene)bis(thio)]bis[2,6-bis(1,1-dimethylethyl)]]: the “oxidative modification of LDL” value in the data set with LDL [7] is “inhibits the oxidative modification of LDL both in vitro and in vivo”. In data set [8], the bioavailability entry is “suffers from bioavailability problems”. Moreover, in data set [3], the “Oxd. Potential” value turned out to be 1.12 Volts.
